Earlier results in US7994258B2, “Hyperbranched polymer having nitroxyl group” (Nissan Chemical Industries, Ltd., priority 2007, dated 2011).

Settings: comparison value, measuring conditions not stated

## O=C([O-])CN(CCN(CC(=O)[O-])CC(=O)O)CCN(CC(=O)[O-])CC(=O)O.[Gd+3] [GdDTPA]
  relaxivity (r1) of comparator: 4.0 mM⁻¹ s⁻¹
